Consider 15 compounds from paper PMC11640836, “Aminomethylmorpholino Nucleosides as Novel Inhibitors of PARP1 and PARP2: Experimental and Molecular Modeling Analyses of Their Selectivity and Mechanism of Action” (International Journal of Molecular Sciences, 2024).

The target of data set [1] is T1, PARP1 (Homo sapiens, UniProt P09874).
T1 construct: made in house; host or cells: insect cells
In words: PARP1 autopoly(ADP-ribosyl)ation (autoPARylation) enzyme assay with [32P]NAD+. The class given is biochemical. To be noted: for IC50: 0.3 mM [32P]NAD+, means ±SDs of three independent experiments, read-out: IC50, PARP1 activity in the autoPARylation reaction. As to the method: (§1) Human recombinant poly(ADP-ribose) polymerase 1 (PARP1) and murine poly(ADP-ribose) polymerase 2 (PARP2) were expressed in insect cells and purified as previously described. Radioactively labeled [^32P]NAD^+ was synthesized from [α-^32P]ATP, according to the previously developed method. The reaction of autopoly(ADP-ribosyl)ation was performed as follows. For PARP1, the reaction mixture contained 50 mM of Tris-HCl, a pH of 8.0, 10 mM of MgCl2, 150 mM of NaCl, 7 mM of β-mercaptoethanol, 2 A260/mL of activated DNA, 0.3 mM of [^32P]NAD^+, and 1 of the tested compounds. The reaction was initiated by adding PARP1 up to 200 nM, and the reaction mixtures were incubated at 37 °C for 2 min. For PARP2, the reaction mixture contained 50 mM of Tris-HCl, a pH of 8.0, 3 mM of spermine, 150 mM of NaCl, 7 mM of β-mercaptoethanol, 2 A260/mL of activated DNA, 0.6 mM of [^32P]NAD^+, and 1 of the tested compounds. The reaction was initiated by adding PARP2 up to 800 nM, and the reaction mixtures were incubated at 37 °C for 5 min. The tested compounds were added at six fixed concentrations, specified for each of them. The reaction was stopped by dropping 10 µL aliquots onto Whatman 1 filter papers soaked in 5% trichloroacetic acid (TCA). The filters were washed 4 times with 150 mL of 5% TCA and dried in the air after the removal of TCA with 90% ethanol. The introduction of radioactivity into the reaction product was quantified using a Typhoon FLA 9500 imager (GE Healthcare, Chicago, IL, USA). The half-maximal inhibitory concentration (IC50) values were determined using a six-point concentration response curve in three independent experiments.

Data set [2] addresses T2, PARP2 (Mus musculus, UniProt O88554).
T2 construct: made in house; host or cells: insect cells
In words: PARP2 autopoly(ADP-ribosyl)ation (autoPARylation) enzyme assay with [32P]NAD+. Type of data set: biochemical, murine. To be noted: for remaining activity at 1000 µM: 5 min, 1 mM compound, autoPARylation reaction, read-out: Residual catalytic activity of PARP2 in the presence of a 1 mM compound; for IC50: 0.6 mM [32P]NAD+, means ±SDs of three independent experiments, read-out: IC50, PARP2 activity in the autoPARylation reaction. The procedure: as §1

Data set [3] has as its system PARP1. To be noted: cited from earlier work.
The test system of data set [4] is PARP2. The settings on record: cited from earlier work.
For data set [5], the system named is HeLa cell line (cervical cancer). As to the kind of experiment: Cell culture cytotoxicity assay (EZ4U/MTT), compounds alone and combined with hydrogen peroxide. The settings on record: for Effect (H2O2 + PARP inhibitor combo): Hela.
Procedure: The cytotoxicity of the compounds and their combinations with a DNA damaging agent were examined against human cells from the HeLa cell line (cervical cancer) using an EZ4U/MTT colorimetric test (Biomedica, Vienna, Austria). […] The cells were grown in 96-well plates in DMEM medium (Gibco, Thermo Fisher Scientific, Waltham, MA, USA), with 1x GlutaMAX (Gibco, Thermo Fisher Scientific, Waltham, MA, USA), 50 IU/mL penicillin, 50 μg/mL streptomycin (MP Biome-dicals, Santa Ana, CA, USA), and in the presence of 10% fetal bovine serum (Biolot, Saint Petersburg, Russia) in a 5% CO2 atmosphere. After the formation of a 30–50% monolayer, the tested compounds were added to the medium to final concentrations specified in Figure 2 and Figure S4, and the cell culture was monitored for 3 days. […] The combination index (CI) values were calculated using CompuSyn software version 1.0.
The target of data set [6] is T1, PARP1. As to the kind of experiment: Steady-state kinetic analysis of the PARP1 enzymatic reaction. Type of data set: biochemical. To be noted: for Type of inhibition: Vmax decreased, KM increased. The procedure:
The four efficient inhibitors of PARP1 (compounds 8, 12, 13, and 14) were further examined by detailed kinetic experiments to determine the type of inhibition and the inhibition constants. […] The kinetics experiments of the PARylation reaction were performed at varied concentrations of the NAD^+ substrate and three–four different fixed concentrations of the inhibitor. The kinetic parameters of the reaction (Vmax and KM) were calculated by fitting the Michaelis–Menten equation to the kinetic data. The type of inhibition was determined by analyzing the dependences of Vmax and KM on the concentration of the inhibitor in linearizing coordinates (Figure S3). All the compounds had decreased Vmax and increased KM values as the inhibitor concentration increased (panels A−E), indicating a mixed type of inhibition, which was further evidenced by the double reciprocal plots of kinetic data (panel F). From these experiments, the inhibition constants reflecting the affinity of inhibitors to the NAD^+ binding pocket of free enzymes were determined (Table 2).
To determine the apparent maximum rate of enzymatic reaction (Vmax), Michaelis constant (KM), and possible inhibition mechanism, steady-state kinetic experiments were performed at […] fixed concentrations of the substrate, in the absence and presence of different fixed concentrations of the inhibitor. The standard reaction mixtures (10 μL) contained 100 μM, 300 μM, 500 μM, 1 mM, or 2 mM NAD^+; a tested PARP1/PARP2 inhibitor specified for each compound (Figure S3); the recombinant human enzyme PARP1 (200 nM) or murine PARP2 (800 nM); and reaction buffer components (specified in the previous subsection). The reaction was performed as described in the previous subsection. The raw data (kinetic curves) were obtained in three independent experiments and statistically processed with OriginPro 8.6.0 software. […]
F) Graphical representation in double reciprocal plots. The inhibitor concentrations (µM) are indicated right to each panel.
Figure S3. Graphical representation of inhibition type determination for PARP1 and PARP2 with selected compounds.
The Ki and Ki(2) values presented in Table 2 in the main text and Table S1 were calculated using the equations:
Ki = Ci⁄ Ki (2) = CiV Vmax ∗ൗ−1
ቂ(Vmax Km )൘ቃ(Vmax ∗ Km ∗)⁄ −1 where Vmax (Vmax*) – maximal reaction velocity in th e absence (presence) of inhibitor; Km (Km*) – Michaelis constant in the absence (presence) of inhibitor; Ci – the inhibitor concentration.
(also on this page, place not known: Ci )⁄ (Vmax ∗ )⁄൘ቃ − Ki(2) Ci V ∗ൗ− 1 the Vmax KM 3000 0 1 0 250 [ 32 P]ADP-ribose, counts x 10 -3 NAD + ,)
(1 picture or pasted object on this page, not shown here)

In data set [7] the target is T3, PARP2 (supplemented with HPF1 or not) (Mus musculus, UniProt O88554).
T3 construct: made in house; host or cells: insect cells (PARP2)
T3 sequence (O88554 whole entry): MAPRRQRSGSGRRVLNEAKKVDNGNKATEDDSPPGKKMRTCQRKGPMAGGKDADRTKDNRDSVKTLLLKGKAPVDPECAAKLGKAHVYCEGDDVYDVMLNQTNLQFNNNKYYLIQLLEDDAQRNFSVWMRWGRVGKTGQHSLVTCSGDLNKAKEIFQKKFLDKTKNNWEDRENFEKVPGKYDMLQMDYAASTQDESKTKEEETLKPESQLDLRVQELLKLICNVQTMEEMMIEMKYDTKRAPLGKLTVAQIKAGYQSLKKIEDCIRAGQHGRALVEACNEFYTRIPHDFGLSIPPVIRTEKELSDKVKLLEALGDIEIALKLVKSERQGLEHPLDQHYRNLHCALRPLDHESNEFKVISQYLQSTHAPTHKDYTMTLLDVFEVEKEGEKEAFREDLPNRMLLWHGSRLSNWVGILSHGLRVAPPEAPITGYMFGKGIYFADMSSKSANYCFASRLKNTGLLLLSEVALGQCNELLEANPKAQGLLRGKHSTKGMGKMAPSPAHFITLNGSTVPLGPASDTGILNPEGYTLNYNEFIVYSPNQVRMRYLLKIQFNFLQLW
As to the kind of experiment: PARP2 inhibition in the absence and presence of HPF1 (automodification, SDS-PAGE). To be noted: 500 nM PARP2, 1 µM HPF1. The class given is biochemical, murine. As to the method: PARP1/PARP2 autopoly(ADP-ribosyl)ation was performed in a standard 20 μL reaction mixture containing 50 mM of Tris-HCl, a pH of 8.0, 100 mM of NaCl, 10 mM of MgCl2, 1 mM of DTT, 10 µM of [^32P]NAD^+, 1 µM of gap-DNA (a 32-mer duplex with a medially located 1-nucleotide gap), 500 nM of PARP1/PARP2 (supplemented with 1 µM of HPF1 or not), and an inhibitor of interest at concentrations specified in Figure 4 and Figure S7. The reaction was initiated by adding a mixture of [^32P]NAD^+ and DNA to a protein-inhibitor mixture pre-assembled on ice. After incubating the mixtures at 37 °C for the indicated time periods, the reactions were terminated by the addition of an SDS-PAGE sample buffer and heating for 2 min at 90 °C. The reaction products were analyzed using 10% SDS-PAGE with the subsequent phosphor imaging of a Coomassie brilliant blue stained gel. Protein bands labeled with [^32P]ADP-ribose were quantified using Quantity One 4.6.7 Basic software. The residual activity (%) was determined as the level of PARP automodification in the presence of an inhibitor normalized to the respective level in the control sample containing no inhibitor.

Setting [8] is: mixed-type inhibition, read-out: Ki (affinity for the free enzyme).
The mark [9] stands for this setting: read-out: Ki(2) (affinity for the enzyme complex with NAD+ substrate).

Where two headings read alike, the source gives them in different places.

T1 sequence (P09874 whole entry): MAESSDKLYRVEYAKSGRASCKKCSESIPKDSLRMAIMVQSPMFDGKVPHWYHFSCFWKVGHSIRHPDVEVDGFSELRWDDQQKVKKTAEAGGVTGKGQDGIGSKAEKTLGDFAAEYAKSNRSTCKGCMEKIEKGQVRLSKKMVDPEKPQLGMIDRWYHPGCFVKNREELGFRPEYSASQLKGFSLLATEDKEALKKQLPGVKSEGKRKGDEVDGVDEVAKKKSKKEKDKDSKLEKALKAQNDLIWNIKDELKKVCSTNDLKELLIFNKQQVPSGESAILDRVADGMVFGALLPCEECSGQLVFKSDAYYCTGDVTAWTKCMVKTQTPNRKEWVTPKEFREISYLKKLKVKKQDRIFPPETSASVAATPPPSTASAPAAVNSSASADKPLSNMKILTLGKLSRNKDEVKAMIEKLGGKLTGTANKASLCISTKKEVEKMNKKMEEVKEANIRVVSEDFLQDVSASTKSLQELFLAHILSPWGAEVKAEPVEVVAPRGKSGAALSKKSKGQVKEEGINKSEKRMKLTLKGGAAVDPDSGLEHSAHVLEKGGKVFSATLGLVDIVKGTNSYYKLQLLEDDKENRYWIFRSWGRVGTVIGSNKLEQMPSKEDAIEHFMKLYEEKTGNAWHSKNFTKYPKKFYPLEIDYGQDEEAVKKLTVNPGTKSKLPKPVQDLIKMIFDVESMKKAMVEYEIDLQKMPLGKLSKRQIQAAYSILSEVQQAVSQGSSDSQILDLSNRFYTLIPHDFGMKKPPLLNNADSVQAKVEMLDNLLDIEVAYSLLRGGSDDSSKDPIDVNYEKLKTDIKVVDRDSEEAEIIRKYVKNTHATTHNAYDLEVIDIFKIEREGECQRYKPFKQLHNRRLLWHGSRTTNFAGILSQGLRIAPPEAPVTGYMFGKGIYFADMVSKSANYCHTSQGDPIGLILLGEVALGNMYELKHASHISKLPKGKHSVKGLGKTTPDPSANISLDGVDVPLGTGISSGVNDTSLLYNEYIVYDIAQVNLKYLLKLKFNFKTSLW
T2 sequence (O88554 whole entry): as the sequence (O88554 whole entry) above

On to `NC[C@@H]1CN(CC(=O)O)C[C@H](n2cnc3c(N)ncnc32)O1` [Compound 1], for which the “Residual catalytic activity of PARP1 in the presence of a 1 mM compound” value (“Residual catalytic activity of PARP1” below) in data set [1] (autoPARylation reaction) was above 30%. Also, the remaining activity at 1000 µM in data set [2] is above 30%.

For `Cc1cn([C@H]2CN(CC(=O)O)C[C@@H](CN)O2)c(=O)[nH]c1=O` [Compound 2], the IC50 in data set [1] worked out at 60 ± 14 µM; in data set [2], 100 ± 12 µM.

As for `NC[C@@H]1CN(CC(=O)O)C[C@H](n2cnc3c(=O)[nH]c(N)nc32)O1` [Compound 3], the “Residual catalytic activity of PARP1” value in data set [1] (autoPARylation reaction) is above 30%. Also, the remaining activity at 1000 µM in data set [2] was above 30%.

`NC[C@@H]1CN(CC(=O)O)C[C@H](n2ccc(N)nc2=O)O1` [Compound 4]: the “Residual catalytic activity of PARP1” value in data set [1] (autoPARylation reaction) was above 30%. Also, the remaining activity at 1000 µM in data set [2] is above 30%.

Take `O=c1[nH]c(=O)n([C@@H]2O[C@H](CO)[C@@H](O)[C@H]2O)cc1I` [Compound 5-I-Urd]: the results for the IC50 in data set [3] and in data set [4] were 49 µM and 27 µM, respectively.

For the compound `NC[C@@H]1CN(CC(=O)O)C[C@H](n2ccc(=O)[nH]c2=O)O1` [Compound 5], in data set [1] (autoPARylation reaction), the “Residual catalytic activity of PARP1” value is above 30%. Besides, the remaining activity at 1000 µM in data set [2] is above 30%.

Consider `NC[C@@H]1CN(CC(=O)O)C[C@H](n2cc(I)c(=O)[nH]c2=O)O1` [Compound 6, 2′-aminomethylmorpholino glycine 5-I-uracyl nucleoside], for which the IC50 in data set [1] came out at 70 ± 12 µM; in data set [2], 142 ± 6 µM.

With `NC[C@@H]1CNC[C@H](n2cnc3c(N)ncnc32)O1` [Compound 7], the “Residual catalytic activity of PARP1” value in data set [1] (autoPARylation reaction) is given as above 30%. Further, the remaining activity at 1000 µM in data set [2] was above 30%.

Regarding `NC[C@@H]1CNC[C@H](n2cnc3c(=O)[nH]c(N)nc32)O1` [Compound 9], the “Residual catalytic activity of PARP1” value in data set [1] (autoPARylation reaction) is above 30%. Moreover, the remaining activity at 1000 µM in data set [2] was above 30%.

In the case of `NC[C@@H]1CNC[C@H](n2ccc(N)nc2=O)O1` [Compound 10], the “Effect (H2O2 + PARP inhibitor combo)” value in data set [5] (H2O2 30 μM + inhibitor 100 μM) was determined as 0.29; in data set [5] (H2O2 30 μM + inhibitor 800 μM) it was 0.23; in data set [5] (H2O2 50 μM + inhibitor 100 μM) it was 0.32; in data set [5] (H2O2 50 μM + inhibitor 800 μM), 0.26; in data set [5] (H2O2 90 μM + inhibitor 100 μM), 0.45; in data set [5] (H2O2 90 μM + inhibitor 800 μM), 0.51. In addition, the “Effect (H2O2 + PARP inhibitor combo)” value was found to be 0.66 in data set [5] (H2O2 150 μM + inhibitor 100 μM), 0.64 in data set [5] (H2O2 150 μM + inhibitor 800 μM), 0.78 in data set [5] (H2O2 250 μM + inhibitor 100 μM) and 0.87 in data set [5] (H2O2 250 μM + inhibitor 800 μM). The “Residual catalytic activity of PARP1” value in data set [1] (autoPARylation reaction) is above 30%. The remaining activity at 1000 µM in data set [2] was above 30%.

Consider `NC[C@@H]1CNC[C@H](n2ccc(=O)[nH]c2=O)O1` [Compound 11], for which the IC50 in data set [1] stood at 420 ± 66 µM. Moreover, the remaining activity at 1000 µM in data set [2] is above 30%.

Take `NC[C@@H]1CNC[C@H](n2cc(Cl)c(=O)[nH]c2=O)O1` [Compound 12, aminomethylmorpholino 5-Cl-uracil nucleoside]: the IC50 in data set [1] came to 45 ± 5 µM. For the same compound, the “Selectivity for PARP1 over PARP2 (IC50 comparison)” value in data set [1] (autoPARylation reaction) is “highly selective PARP1 inhibitor”. Besides, the Type of inhibition result in data set [6] is “mixed-type inhibition”. Moreover, the Ki in data set [6] (setting [8]) was 79 ± 6 µM; in data set [6] (setting [9]), 300 ± 60 µM. Moreover, the remaining activity at 1000 µM in data set [2] was above 30%.

In the case of `NC[C@@H]1CNC[C@H](n2cc(Br)c(=O)[nH]c2=O)O1` [Compound 13], the figures for the IC50 in data set [1] and in data set [2] were 30 ± 3 µM and 250 ± 37 µM, respectively. Further, the Type of inhibition result in data set [6] is “mixed-type inhibition”. For the same compound, the inhibition constant Ki worked out at 25 ± 4 µM in data set [6] (setting [8]) and 130 ± 30 µM in data set [6] (setting [9]). Besides, the “Impact of HPF1 on the inhibition potency against PARP2” value in data set [7] is recorded as “no impact of HPF1”.

In the case of `O=C(c1cc(Cc2n[nH]c(=O)c3ccccc23)ccc1F)N1CCN(C(=O)C2CC2)CC1` [olaparib, reference compound], the “Effect (H2O2 + PARP inhibitor combo)” value in data set [5] (H2O2 30 μM + inhibitor 30 μM) was determined as 0.32; in data set [5] (H2O2 30 μM + inhibitor 50 μM), 0.42; in data set [5] (H2O2 50 μM + inhibitor 30 μM), 0.51; in data set [5] (H2O2 50 μM + inhibitor 50 μM) it was […]; in data set [5] (H2O2 90 μM + inhibitor 30 μM), 0.6; in data set [5] (H2O2 90 μM + inhibitor 50 μM) it was 0.7. Further, the “Effect (H2O2 + PARP inhibitor combo)” value in data set [5] (H2O2 150 μM + inhibitor 30 μM) amounted to 0.85; in data set [5] (H2O2 150 μM + inhibitor 50 μM) it was 0.9; in data set [5] (H2O2 250 μM + inhibitor 30 μM), 0.96; in data set [5] (H2O2 250 μM + inhibitor 50 μM), 0.98. Moreover, the “Effect on the cytotoxicity of hydrogen peroxide” value in data set [5] (Hela cells, MTT test, H2O2 30 to 250 μM) is reported as “enhanced the cytotoxic effects of hydrogen peroxide”. In data set [4], the IC50 is […].

As to `Cc1cn([C@@H]2O[C@H](CO)[C@@H](O)[C@H]2O)c(=O)[nH]c1=O` [rThd], the IC50 in data set [3] is 277 µM; in data set [4] it was 374 µM.
